Read-outs that look alike come from different tables or passages of the source.
Experiments:
Assay type in all cases: cell-based
Aβ-42 = assay: MSD Human (6E10) Ab 3-PLEX elisa, conditioned media of 2B7 cells: Aβ-42; settings: for IC50 / inhibition at 20 µM: Homo sapiens; for inhibition at 20 µM: Aβ-42, 20 μM
Protocol: (§1) Assays were conducted to determine the ability of a Compound of Formula I to modulate […], and Aβ-38.
(§2) Plates with capture antibodies were blocked for 1-2 hours at room temperature with 150 μL of the manufactures blocking reagent.
(§3) Conditioned Media: • Cultured 2B7 cells in 96 well plate with 250 uL of media per well until confluent; • Prepared serial dilutions of compounds in DMSO at 100× the final desired concentration; • Washed wells with 2B7 cells 1× with 250 uL of media; • Diluted DMSO stocks 1:100 into media: • Added 250 μL of media containing compounds (1% DMSO) to wells with 2B7 cells for 5 hours at 37° C.
(§4) Elisa Sample Prep: • Diluted conditioned media: 1 part media with 1% DMSO and 1 part blocking buffer; • 150 μL of the 250 μL of conditioned media were used.
(§5) […] CURVE SAMPLE PREP: Prepared per manufacturer's protocol (see above) • Seven point standard curve samples were prepared that contained Aβ-42, Aβ-40, and Aβ-38. The highest concentration of Aβ-42 and Aβ-3-38 was 3,000 pg/mL and the highest concentration of Aβ-40 was 10,000 pg/mL. Subsequent serial dilutions were 1:3 and the final composition of each sample was 1 part blocking buffer and 1 part cell medium containing 1% DMSO.
(§6) Overnight Sample Incubation: • Blocked plates are washed 5× with MSD wash buffer with a plate washer • 25 uL of detection antibody and blocker G reagent in MSD blocking solution is added • 25 uL of samples (1 part conditioned media containing 1% DMSO and 1 part MSD blocking buffer) are then added. • plates are incubated overnight at 4 degrees C. or 2 hours at room temp
(§7) Final Wash and Readout: • Wash wells 5× with MSD wash buffer • Added 150 μL 2×MSD read buffer • Read with MSD imager.
(§8) A-Beta peptide levels for each peptide are calculated from the standard curve using the MSD software provided with the MSD 2400 Imager. Percent vehicle values for each compound dosage were then calculated and fit to a 4 parameter curve generating IC50 values.

Aβ-40 = assay: MSD Human (6E10) Ab 3-PLEX elisa, conditioned media of 2B7 cells: Aβ-40; settings: for IC50 / inhibition at 20 µM: Homo sapiens; for inhibition at 20 µM: Aβ-40, 20 μM
Protocol: as §1, §2, §3, §4, §5, §6, §7, §8

Aβ-38 = assay: MSD Human (6E10) Ab 3-PLEX elisa, conditioned media of 2B7 cells: Aβ-38; settings: Homo sapiens; for IC50: Aβ-38 (superscript a)
Protocol: as §1, §2, §3, §4, §5, §6, §7, §8

[1] = Aβ-42 (superscript c), read-out: 50% reduction value
[2] = Aβ-42 (superscript c), read-out: IC50 range
[3] = Aβ-40 (superscript b), read-out: 50% reduction value
[4] = Aβ-40 (superscript b), read-out: IC50 range

| SMILES | 50% reduction value (Aβ-42; Aβ-42 (superscript c)) | 50% reduction value (Aβ-40; Aβ-40 (superscript b)) | IC50 (Aβ-38; read-out: 50% reduction value) [µM] | IC50 (Aβ-38; read-out: IC50 range) [µM] | IC50 (Aβ-42; [1]) [µM] | IC50 (Aβ-42; [2]) [µM] | IC50 (Aβ-40; [3]) [µM] | IC50 (Aβ-40; [4]) [µM] | inhibition at 20 µM (Aβ-42) [%] | inhibition at 20 µM (Aβ-40) [%] | inhibition at 20 µM (Aβ-38; Aβ-38, 20 μM) [%] |
| --- | --- | --- | --- | --- | --- | --- | --- | --- | --- | --- | --- |
| CNC(=O)O[C@H](C(C)C)C1C[C@@H](C)[C@H]2C(O1)[C@H](O)[C@@]1(C)C3CC[C@H]4C(C)(C)[C@@H](O)CC[C@@]45C[C@@]35CC[C@]21C (stereo partly drawn) | G/H | H/I | 1 to 10 | < 1 | – | – | – | – | – | – | – |
| CC(C)[C@@H](OC(=O)N(C)C)C1C[C@@H](C)[C@H]2C(O1)[C@H](O)[C@@]1(C)C3CC[C@H]4C(C)(C)[C@@H](O)CC[C@@]45C[C@@]35CC[C@]21C (stereo partly drawn) | – | – | < 1 | 1 to 10 | < 10 | 1 to 10 | 1 to 10 | > 10 | – | – | – |
| CC(C)C(=O)N1CCO[C@@H](O[C@H]2CC[C@]34C[C@]35CC[C@]3(C)[C@@H]6C(OC([C@H](O)C(C)C)C[C@H]6C)[C@H](O)[C@@]3(C)C5CC[C@H]4C2(C)C)C1 (stereo partly drawn) | – | – | 1 to 10 | 1 to 10 | 1 to 10 | – | > 10 | – | – | – | – |
| CC(C)C(=O)N1CCO[C@@H](O[C@H]2CC[C@]34C[C@]35CC[C@]3(C)C6C(OC(CN(C)C(=O)N(C)C)C[C@H]6C)[C@H](O)[C@@]3(C)C5CC[C@H]4C2(C)C)C1 (stereo partly drawn) | – | – | < 10 | 1 to 10 | > 10 | – | – | – | 25 to 75 | 25 to 75 | – |
| CCO[C@@H](C1C[C@@H](C)[C@H]2C(O1)[C@H](O)[C@@]1(C)C3CC[C@H]4C(C)(C)[C@@H](O)CC[C@@]45C[C@@]35CC[C@]21C)C(C)(C)O (stereo partly drawn) | – | – | < 1 | – | < 1 | < 1 | – | < 1 | – | 25 to 75 | 25 to 75 |
| CC(C)C(=O)N1CCO[C@@H](O[C@H]2CC[C@]34C[C@]35CC[C@]3(C)C6C(OC(CN(C)C(N)=O)C[C@H]6C)[C@H](O)[C@@]3(C)C5CC[C@H]4C2(C)C)C1 (stereo partly drawn) | – | – | 1 to 10 | – | 1 to 10 | – | > 10 | – | – | – | – |
| CO[C@@H]([C@H]1C[C@@H](C)[C@H]2[C@H](O1)[C@H](O)[C@@]1(C)C3CC[C@H]4C(C)(C)[C@@H](O[C@H]5CN(C6COC6)CCO5)CC[C@@]45C[C@@]35CC[C@]21C)C(C)(C)O (stereo partly drawn) | – | – | < 1 | – | < 1 | – | 1 to 10 | – | – | – | – |
| CO[C@@H]([C@H]1C[C@@H](C)[C@H]2[C@H](O1)[C@H](OC)[C@@]1(C)C3CC[C@H]4C(C)(C)[C@@H](O[C@H]5CN(C6COC6)CCO5)CC[C@@]45C[C@@]35CC[C@]21C)C(C)(C)O (stereo partly drawn) | – | – | < 1 | – | – | – | – | – | 25 to 75 | 25 to 75 | – |
| CCO[C@@H]([C@H]1C[C@@H](C)[C@H]2[C@H](O1)[C@H](O)[C@@]1(C)C3CC[C@H]4C(C)(C)[C@@H](O[C@H]5CN(C6COC6)CCO5)CC[C@@]45C[C@@]35CC[C@]21C)C(C)(C)O (stereo partly drawn) | – | – | < 1 | – | < 1 | < 1 | 1 to 10 | – | – | – | – |
| CC(=O)OC(C)(C)C1C[C@@H](C)[C@H]2C(O1)[C@H](O)[C@@]1(C)C3CC[C@H]4C(C)(C)[C@@H](O)CC[C@@]45C[C@@]35CC[C@]21C (stereo partly drawn) | – | – | 1 to 10 | – | > 10 | – | > 10 | – | – | – | – |
| C[C@@H]1CC(COc2ncccn2)OC2C1[C@@]1(C)CC[C@@]34C[C@@]35CC[C@H](O[C@H]3CN(C6COC6)CCO3)C(C)(C)[C@@H]5CCC4[C@]1(C)[C@H]2O (stereo partly drawn) | – | – | 1 to 10 | 1 to 10 | 1 to 10 | 1 to 10 | 1 to 10 | 1 to 10 | – | – | – |
| C[C@@H]1CC(C(O)C(C)(C)C)OC2[C@H]1[C@@]1(C)CC[C@@]34C[C@@]35CC[C@H](O[C@H]3CN(C6COC6)CCO3)C(C)(C)[C@@H]5CCC4[C@]1(C)[C@H]2O (stereo partly drawn) | – | – | < 1 | < 1 | 1 to 10 | < 1 | < 1 | < 1 | – | – | – |
| C[C@@H]1CC(C(O)C(C)(C)C)OC2[C@H]1[C@@]1(C)CC[C@@]34C[C@@]35CC[C@H](O)C(C)(C)[C@@H]5CCC4[C@]1(C)[C@H]2O (stereo partly drawn) | – | – | 1 to 10 | – | – | – | > 10 | – | 25 to 75 | – | – |
| CC(=O)OC(C(C)C)C1C[C@@H](C)[C@H]2C(O1)[C@H](O)[C@@]1(C)C3CC[C@H]4C(C)(C)[C@@H](O[C@H]5CNCCO5)CC[C@@]45C[C@@]35CC[C@]21C (stereo partly drawn) | – | – | < 1 | < 1 | < 1 | < 1 | 1 to 10 | 1 to 10 | – | – | – |
| CO[C@H](C(C)C)C1C[C@@H](C)[C@H]2C(O1)[C@H](O)[C@@]1(C)C3CC[C@H]4C(C)(C)[C@@H](O[C@H]5CNCCO5)CC[C@@]45C[C@@]35CC[C@]21C (stereo partly drawn) | – | – | 1 to 10 | 1 to 10 | 1 to 10 | 1 to 10 | 1 to 10 | 1 to 10 | – | – | – |
| CO[C@H](C(C)C)C1C[C@@H](C)[C@H]2C(O1)[C@H](O)[C@@]1(C)C3CC[C@H]4C(C)(C)[C@@H](O)CC[C@@]45C[C@@]35CC[C@]21C (stereo partly drawn) | – | – | 1 to 10 | – | – | – | > 10 | – | 25 to 75 | – | – |
| CNC(=O)O[C@H](C(C)C)C1C[C@@H](C)[C@H]2C(O1)[C@H](O)[C@@]1(C)C3CC[C@H]4C(C)(C)[C@@H](O[C@H]5CNCCO5)CC[C@@]45C[C@@]35CC[C@]21C (stereo partly drawn) | – | – | < 1 | – | < 1 | < 1 | 1 to 10 | > 10 | 25 to 75 | 25 to 75 | – |
| C[C@@H]1CC([C@H](OC(=O)C2CCOCC2)C(C)(C)O)OC2[C@H]1[C@@]1(C)CC[C@@]34C[C@@]35CC[C@H](O)C(C)(C)[C@@H]5CCC4[C@]1(C)[C@H]2O (stereo partly drawn) | – | – | 1 to 10 | – | – | – | – | – | 25 to 75 | 25 to 75 | – |
| C[C@@H]1C[C@H]([C@H](OC(N)=O)C(C)(C)O)O[C@H]2[C@H]1[C@@]1(C)CC[C@@]34C[C@@]35CC[C@H](O[C@H]3CN(C6COC6)CCO3)C(C)(C)[C@@H]5CCC4[C@]1(C)[C@H]2O (stereo partly drawn) | – | – | 1 to 10 | – | – | – | > 10 | – | 25 to 75 | – | – |
| CNC(=O)OC(C)(C)[C@@H](O)[C@H]1C[C@@H](C)[C@H]2[C@H](O1)[C@H](O)[C@@]1(C)C3CC[C@H]4C(C)(C)[C@@H](O)CC[C@@]45C[C@@]35CC[C@]21C (stereo partly drawn) | – | – | 1 to 10 | – | – | – | > 10 | – | 25 to 75 | – | – |
| C[C@@H]1CC(COC(=O)C(C)(C)C)OC2[C@H]1[C@@]1(C)CC[C@@]34C[C@@]35CC[C@H](O[C@H]3CN(C6COC6)CCO3)C(C)(C)[C@@H]5CCC4[C@]1(C)[C@H]2O (stereo partly drawn) | – | – | 1 to 10 | – | > 10 | – | > 10 | – | – | – | – |
| C[C@@H]1CC(COC(=O)C2CC2)OC2[C@H]1[C@@]1(C)CC[C@@]34C[C@@]35CC[C@H](O[C@H]3CN(C6COC6)CCO3)C(C)(C)[C@@H]5CCC4[C@]1(C)[C@H]2O (stereo partly drawn) | – | – | 1 to 10 | – | – | – | > 10 | – | < 25 | – | – |
| CC(C)CC(=O)OCC1C[C@@H](C)[C@H]2C(O1)[C@H](O)[C@@]1(C)C3CC[C@H]4C(C)(C)[C@@H](O[C@H]5CN(C6COC6)CCO5)CC[C@@]45C[C@@]35CC[C@]21C (stereo partly drawn) | – | – | 1 to 10 | – | – | – | – | – | 25 to 75 | 25 to 75 | – |

Reference: patent publication US20110251379A1, “COMPOUNDS USEFUL FOR TREATING NEURODEGENERATIVE DISORDERS” (Satori Pharmaceuticals, Inc., priority 2010, published 2011)
